Results published in PubChem BioAssay AID1963825 (Molecular Pharmacology Branch, DTP, NCI, 2024).

Test: Anticancer human tumor 997537-175-T-J1-PDC patient-derived colon adenocarcinoma cell line growth inhibition [POLQ]
Conditions: 997537-175-T-J1-PDC complex spheroid viability, combination with POLQ inhibitors; for IC50: curve of first compound; for viability, T/C: stronger effect = lower value
How it was run: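 Complex spheroid viability model combining PDC tumour cells with endothelial (HUVEC) and MSC stromal cells. Novobiocin, ART-558 or RP6685 were tested singly and in combination with standard and investigational anticancer drugs. Each was titrated in half-log steps from near clinical Cmax, or from 10 microM where Cmax was unknown.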

[1] = second compound 0.0316 µM, first compound 0.0316 µM
[2] = second compound 0.0316 µM, first compound 0.1 µM
[3] = second compound 0.0316 µM, first compound 0.316 µM
[4] = second compound 0.0316 µM, first compound 1 µM
[5] = second compound 0.0316 µM, first compound 3.16 µM
[6] = second compound 0.0316 µM, first compound 10 µM
[7] = second compound 0.1 µM, first compound 0.0316 µM
[8] = second compound 0.1 µM, first compound 0.1 µM
[9] = second compound 0.1 µM, first compound 0.316 µM
[10] = second compound 0.1 µM, first compound 1 µM
[11] = second compound 0.1 µM, first compound 3.16 µM
[12] = second compound 0.1 µM, first compound 10 µM
[13] = second compound 0.316 µM, first compound 0.0316 µM
[14] = second compound 0.316 µM, first compound 0.1 µM
[15] = second compound 0.316 µM, first compound 0.316 µM
[16] = second compound 0.316 µM, first compound 1 µM
[17] = second compound 0.316 µM, first compound 3.16 µM
[18] = second compound 0.316 µM, first compound 10 µM
[19] = second compound 1 µM, first compound 0.0316 µM
[20] = second compound 1 µM, first compound 0.1 µM
[21] = second compound 1 µM, first compound 0.316 µM
[22] = second compound 1 µM, first compound 1 µM
[23] = second compound 1 µM, first compound 3.16 µM
[24] = second compound 1 µM, first compound 10 µM
[25] = second compound 3.16 µM, first compound 0.0316 µM
[26] = second compound 3.16 µM, first compound 0.1 µM
[27] = second compound 3.16 µM, first compound 0.316 µM
[28] = second compound 3.16 µM, first compound 1 µM
[29] = second compound 3.16 µM, first compound 3.16 µM
[30] = second compound 3.16 µM, first compound 10 µM
[31] = second compound 10 µM, first compound 0.0316 µM
[32] = second compound 10 µM, first compound 0.1 µM
[33] = second compound 10 µM, first compound 0.316 µM
[34] = second compound 10 µM, first compound 1 µM
[35] = second compound 10 µM, first compound 3.16 µM
[36] = second compound 10 µM, first compound 10 µM
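Further: luminescence signal used as a surrogate for viable cells; spheroids exposed to drugs for seven days before readout.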

SMILES: C#Cc1c(F)ccc2cc(O)cc(-c3ncc4c(N5CC6CCC(C5)N6)nc(OCC56CCCN5CC(F)C6)nc4c3F)c12 (stereo unspecified) + Nc1ccc(C#CCN(C(=O)Cc2ncc(C(F)(F)F)cc2C(F)(F)F)c2ccc(F)cc2)nn1
- IC50 (second compound 0.0316 µM): > 10 µM
- IC50 (second compound 0.1 µM): > 10 µM
- IC50 (second compound 0.316 µM): > 10 µM
- IC50 (second compound 1 µM): > 10 µM
- IC50 (second compound 3.16 µM): > 10 µM
- IC50 (second compound 10 µM): > 10 µM
- viability, T/C [1]: 92.4%
- viability, T/C [2]: 93%
- viability, T/C [3]: 108%
- viability, T/C [4]: 106%
- viability, T/C [5]: 102%
- viability, T/C [6]: 96.5%
- viability, T/C [7]: 101%
- viability, T/C [8]: 110%
- viability, T/C [9]: 101%
- viability, T/C [10]: 86.8%
- viability, T/C [11]: 94.1%
- viability, T/C [12]: 96.7%
- viability, T/C [13]: 105%
- viability, T/C [14]: 105%
- viability, T/C [15]: 101%
- viability, T/C [16]: 96.9%
- viability, T/C [17]: 103%
- viability, T/C [18]: 110%
- viability, T/C [19]: 106%
- viability, T/C [20]: 103%
- viability, T/C [21]: 95.8%
- viability, T/C [22]: 82.8%
- viability, T/C [23]: 106%
- viability, T/C [24]: 98.1%
- viability, T/C [25]: 94.9%
- viability, T/C [26]: 103%
- viability, T/C [27]: 99.5%
- viability, T/C [28]: 92.7%
- viability, T/C [29]: 104%
- viability, T/C [30]: 107%
- viability, T/C [31]: 104%
- viability, T/C [32]: 102%
- viability, T/C [33]: 100%
- viability, T/C [34]: 112%
- viability, T/C [35]: 98.8%
- viability, T/C [36]: 110%

SMILES: CC1COCCN1c1cc(C2(O)CC3CCC(C2)O3)c2cnn(-c3ccn[nH]3)c2n1 (stereo unspecified) + Nc1ccc(C#CCN(C(=O)Cc2ncc(C(F)(F)F)cc2C(F)(F)F)c2ccc(F)cc2)nn1
- IC50 (second compound 0.0316 µM): 1.7 µM
- IC50 (second compound 0.1 µM): > 10 µM
- IC50 (second compound 0.316 µM): > 10 µM
- IC50 (second compound 1 µM): 6.2 µM
- IC50 (second compound 3.16 µM): 3.16 µM
- IC50 (second compound 10 µM): > 10 µM
- viability, T/C [1]: 94.8%
- viability, T/C [2]: 83.7%
- viability, T/C [3]: 58.4%
- viability, T/C [4]: 56.8%
- viability, T/C [5]: 40.1%
- viability, T/C [6]: 53.3%
- viability, T/C [7]: 98.8%
- viability, T/C [8]: 73.5%
- viability, T/C [9]: 42.5%
- viability, T/C [10]: 72.8%
- viability, T/C [11]: 48%
- viability, T/C [12]: 64.5%
- viability, T/C [13]: 93.2%
- viability, T/C [14]: 80.8%
- viability, T/C [15]: 49.9%
- viability, T/C [16]: 46.3%
- viability, T/C [17]: 51.4%
- viability, T/C [18]: 75.1%
- viability, T/C [19]: 97.3%
- viability, T/C [20]: 69.4%
- viability, T/C [21]: 63.1%
- viability, T/C [22]: 47.6%
- viability, T/C [23]: 58.6%
- viability, T/C [24]: 44.7%
- viability, T/C [25]: 82.4%
- viability, T/C [26]: 79.1%
- viability, T/C [27]: 42%
- viability, T/C [28]: 56.4%
- viability, T/C [29]: 42.8%
- viability, T/C [30]: 74.7%
- viability, T/C [31]: 94%
- viability, T/C [32]: 79.9%
- viability, T/C [33]: 55.3%
- viability, T/C [34]: 52.2%
- viability, T/C [35]: 62%
- viability, T/C [36]: 65.2%

SMILES: O=C(Nc1ccc(O)c(NS(=O)(=O)c2ccc(F)cc2)c1)c1ccc(-c2ccccc2)cc1 + Nc1ccc(C#CCN(C(=O)Cc2ncc(C(F)(F)F)cc2C(F)(F)F)c2ccc(F)cc2)nn1
- IC50 (second compound 0.0316 µM): > 10 µM
- IC50 (second compound 0.1 µM): > 10 µM
- IC50 (second compound 0.316 µM): > 10 µM
- IC50 (second compound 1 µM): > 10 µM
- IC50 (second compound 3.16 µM): > 10 µM
- IC50 (second compound 10 µM): > 10 µM
- viability, T/C [1]: 106%
- viability, T/C [2]: 108%
- viability, T/C [3]: 106%
- viability, T/C [4]: 99.1%
- viability, T/C [5]: 91.3%
- viability, T/C [6]: 97.7%
- viability, T/C [7]: 109%
- viability, T/C [8]: 91.9%
- viability, T/C [9]: 96.8%
- viability, T/C [10]: 105%
- viability, T/C [11]: 119%
- viability, T/C [12]: 87.5%
- viability, T/C [13]: 104%
- viability, T/C [14]: 114%
- viability, T/C [15]: 106%
- viability, T/C [16]: 101%
- viability, T/C [17]: 107%
- viability, T/C [18]: 84.6%
- viability, T/C [19]: 105%
- viability, T/C [20]: 105%
- viability, T/C [21]: 95.2%
- viability, T/C [22]: 101%
- viability, T/C [23]: 102%
- viability, T/C [24]: 89.8%
- viability, T/C [25]: 98%
- viability, T/C [26]: 97.9%
- viability, T/C [27]: 114%
- viability, T/C [28]: 110%
- viability, T/C [29]: 102%
- viability, T/C [30]: 90.9%
- viability, T/C [31]: 105%
- viability, T/C [32]: 101%
- viability, T/C [33]: 113%
- viability, T/C [34]: 103%
- viability, T/C [35]: 97.4%
- viability, T/C [36]: 81%
